Data reported in US20150258101A1 (Proximagen Limited, priority 2014, published 2015).
Counter-ions that a name gives are not always drawn.

target: T1, purified recombinantly expressed human SSAO (Homo sapiens, UniProt Q16853); assay: SSAO enzyme inhibition assay (benzylamine substrate; hydrogen peroxide/HRP-coupled or 14C aldehyde detection); format: biochemical; conditions: SSAO inhibitory activity, RT
T1 construct: made in house
T1 sequence (Q16853 1-763): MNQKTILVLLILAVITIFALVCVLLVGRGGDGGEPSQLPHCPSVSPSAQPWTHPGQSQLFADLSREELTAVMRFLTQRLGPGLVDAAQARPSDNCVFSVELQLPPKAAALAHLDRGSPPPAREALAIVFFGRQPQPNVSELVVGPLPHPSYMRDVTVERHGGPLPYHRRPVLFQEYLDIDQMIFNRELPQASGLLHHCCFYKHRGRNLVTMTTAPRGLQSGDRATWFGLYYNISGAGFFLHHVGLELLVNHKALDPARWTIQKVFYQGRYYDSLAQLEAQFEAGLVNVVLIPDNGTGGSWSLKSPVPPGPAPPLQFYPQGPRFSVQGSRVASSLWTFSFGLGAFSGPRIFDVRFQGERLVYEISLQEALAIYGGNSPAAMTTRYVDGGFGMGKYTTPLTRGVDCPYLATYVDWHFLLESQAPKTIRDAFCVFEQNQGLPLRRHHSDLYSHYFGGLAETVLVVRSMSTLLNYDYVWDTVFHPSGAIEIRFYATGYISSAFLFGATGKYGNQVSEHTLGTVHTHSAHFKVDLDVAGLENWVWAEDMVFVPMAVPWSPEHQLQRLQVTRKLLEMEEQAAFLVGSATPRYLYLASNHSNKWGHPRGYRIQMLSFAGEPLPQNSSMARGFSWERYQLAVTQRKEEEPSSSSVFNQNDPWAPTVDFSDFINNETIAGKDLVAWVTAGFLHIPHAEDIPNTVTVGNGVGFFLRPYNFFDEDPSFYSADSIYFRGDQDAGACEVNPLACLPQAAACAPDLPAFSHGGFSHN
Procedure: All primary assays were performed at RT. with purified recombinantly expressed human SSAO. Enzyme was prepared essentially as described in Öhman et al. (Protein Expression and Purification 46 (2006) 321-331). In addition, secondary- and selectivity assays were performed using SSAO prepared from various tissues or purified rat recombinant SSAO. The enzyme activity was assayed with benzylamine as substrate by measuring either benzaldehyde production, using ^14C-labeled substrate, or by utilizing the production of hydrogen peroxide in a horseradish peroxidase (HRP) coupled reaction. Briefly, test compounds were dissolved in dimethyl sulfoxide (DMSO) to a concentration of 10 mM. Dose-response measurements were assayed by either creating 1:10 serial dilutions in DMSO to produce a 7 point curve or by making 1:3 serial dilutions in DMSO to produce 11 point curves.
In a horseradish peroxidase (HRP) coupled reaction, hydrogen peroxide oxidation of 10-acetyl-3,7-dihydroxyphenoxazine produced resorufin, which is a highly fluorescent compound (Zhout and Panchuk-Voloshina. Analytical Biochemistry 253 (1997) 169-174; Amplex® Red Hydrogen Peroxide/peroxidase Assay kit, Invitrogen A22188). Enzyme and compounds in 50 mM sodium phosphate, pH 7.4 were set to pre-incubate in flat-bottomed microtiter plates for approximately 15 min before initiating the reaction by addition of a mixture of HRP, benzylamine and Amplex reagent. Benzylamine concentration was fixed at a concentration corresponding to the Michaelis constant, determined using standard procedures. Fluorescence intensity was then measured at several time points during 1-2 h, exciting at 544 nm and reading the emission at 590 nm. For the human SSAO assay final concentrations of the reagents in the assay wells were: SSAO enzyme 1 ug/ml, benzylamine 100 uM, Amplex reagent 20 uM, HRP 0.1 U/mL and varying concentrations of test compound. The inhibition was measured as % decrease of the signal compared to a control without inhibitor (only diluted DMSO). The background signal from a sample containing no SSAO enzyme was subtracted from all data points. Data was fitted to a four parameter logistic model and IC50 values were calculated using the Graph Pad Prism 4 or XLfit 4 programs.
SSAO activity was assayed using 14C-labeled benzylamine and analysed by measuring radioactive benzaldehyde. In a white 96-well optiplate (Packard), 20 uL of diluted test compound was pre-incubated at room temperature with 20 uL SSAO enzyme for approximately 15 min with continuous agitation. All dilutions were made with PBS. The reaction was initiated by adding 20 uL of the benzylamine substrate solution containing [7-14C] Benzylamine hydrochloride (CFA589, GE Healthcare). The plate was incubated for 1 h as above after which the reaction was stopped by acidification (10 uL 1M aq HCl). Then 90 uL Micro Scint-E solution (Perkin-Elmer) was added to each well and the plate was continuously mixed for 15 min. Phase separation occurred instantly and activity was read in a Topcount scintillation counter (Perkin-Elmer). In the final reaction well, the human recombinant SSAO concentration was 10 ug/ml. In order to optimize sensitivity, the substrate concentration was decreased as compared to the HRP coupled assay in order to get a higher fraction of radioactive product. In the human SSAO assay, benzylamine concentration was 40 uM (0.2 uCi/mL). Data was analysed as above.

| SMILES | IC50 |
| --- | --- |
| CN1CCN(c2ncc(-c3nc4ccncc4n3-c3ccc(F)cc3)cn2)CC1=O [Example 40, 4-{5-[3-(4-Fluorophenyl)-3H-imidazo[4,5-c]pyridin-2-yl]pyrimidin-2-yl}-1-methylpiperazin-2-one] | 50 to 200 nM |
| Fc1ccc(-n2c(-c3ccc(N4CCOCC4)nc3)nc3ccncc32)c(F)c1 [Example 41, 4-{5-[3-(2,4-Difluorophenyl)-3H-imidazo[4,5-c]pyridin-2-yl]pyridin-2-yl}morpholine] | < 50 nM |
| CCOCCNc1ncc(-c2nc3ccncc3n2-c2ccc(F)cc2)cn1 [Example 42, N-(2-Ethoxyethyl)-5-[3-(4-fluorophenyl)-3H-imidazo [4,5-c]pyridin-2-yl]pyrimidin-2-amine] | 50 to 200 nM |
| CCOCCNc1ncc(-c2nc3ccncc3n2-c2ccc(C)cc2)cn1 [Example 43, N-(2-Ethoxyethyl)-5-[3-(4-methylphenyl)-3H-imidazo [4,5-c]pyridin-2-yl] pyrimidin-2-amine] | < 50 nM |
| Clc1ccc(-n2c(-c3cnc[nH]3)nc3ccncc32)cc1 [Example 44, 5-[3-(4-Chlorophenyl)-3H-imidazo[4,5-c]pyridin-2-yl]-1H-imidazole] | 200 to 1200 nM |
| CN1CCN(Cc2cccc(-c3nc4ccncc4n3-c3ccc(Cl)cc3)c2)CC1 [Example 45, 1-({3-[3-(4-Chlorophenyl)-3H-imidazo[4,5-c]pyridin-2-yl]phenyl}methyl)-4-methylpiperazine; formic acid] | 200 to 1200 nM |
| Clc1ccc(-n2c(-c3ccc(Cn4ccnc4)cc3)nc3ccncc32)cc1 [Example 48, 1-({4-[3-(4-Chlorophenyl)-3H-imidazo[4,5-c]pyridin-2-yl]phenyl}methyl)-1H-imidazole] | < 50 nM |
| Clc1ccc(-n2c(-c3ccc(CN4CCOCC4)cc3)nc3ccncc32)cc1 [Example 49, 4-({4-[3-(4-Chlorophenyl)-3H-imidazo[4,5-c]pyridin-2-yl]phenyl}methyl)morpholine] | < 50 nM |
| Cc1cc(F)ccc1-n1c(-c2cnc(N3CCOCC3)nc2)nc2ccncc21 [Example 55, 4-{5-[3-(4-Fluoro-2-methylphenyl)-3H-imidazo[4,5-c]pyridin-2-yl]pyrimidin-2-yl}morpholine] | < 50 nM |
| Fc1ccc(-n2c(-c3cnc(N4CCOCC4)nc3)nc3ccncc32)c(Cl)c1 [Example 56, 4-{5-[3-(2-Chloro-4-fluorophenyl)-3H-imidazo[4,5-c]pyridin-2-yl]pyrimidin-2-yl}morpholine] | 200 to 1200 nM |
| Cc1ccc(-n2c(-c3cnc(N4CCOCC4)nc3)nc3ccncc32)cn1 [Example 58, 4-{5-[3-(6-Methylpyridin-3-yl)-3H-imidazo[4,5-c]pyridin-2-yl]pyrimidin-2-yl}morpholine] | 200 to 1200 nM |
| Brc1ccc(-n2c(-c3cnc(N4CCOCC4)nc3)nc3ccncc32)cc1 [Example 59, 4-{5-[3-(4-Bromophenyl)-3H-imidazo[4,5-c]pyridin-2-yl]pyrimidin-2-yl}morpholine] | 50 to 200 nM |
| Fc1ccccc1-n1c(-c2cnc(N3CCOCC3)nc2)nc2ccncc21 [Example 60, 4-{5-[3-(2-Fluorophenyl)-3H-imidazo[4,5-c]pyridin-2-yl]pyrimidin-2-yl}morpholine] | 50 to 200 nM |
| Fc1ccc(-n2c(-c3ccc(N4CCOCC4)nc3)nc3ccncc32)c(Cl)c1 [Example 61, 4-{5-[3-(2-Chloro-4-fluorophenyl)-3H-imidazo[4,5-c]pyridin-2-yl]pyridin-2-yl}morpholine] | < 50 nM |
| Cc1cc(F)ccc1-n1c(-c2ccc(N3CCOCC3)nc2)nc2ccncc21 [Example 62, 4-{5-[3-(4-Fluoro-2-methylphenyl)-3H-imidazo[4,5-c]pyridin-2-yl]pyridin-2-yl}morpholine] | 50 to 200 nM |
| Oc1ccc(-n2c(-c3ccc(N4CCOCC4)nc3)nc3ccncc32)cc1 [Example 65, 4-{2-[6-(Morpholin-4-yl)pyridin-3-yl]-3H-imidazo[4,5-c]pyridin-3-yl}phenol] | < 50 nM |
| FC(F)(F)c1ccc(-n2c(-c3ccc(N4CCOCC4)nc3)nc3ccncc32)cc1 [Example 66, 4-(5-{3-[4-(Trifluoromethyl)phenyl]-3H-imidazo[4,5-c]pyridin-2-yl}pyridin-2-yl)morpholine] | 50 to 200 nM |
| Fc1ccccc1-n1c(-c2ccc(N3CCOCC3)nc2)nc2ccncc21 [Example 68, 4-{5-[3-(2-Fluorophenyl)-3H-imidazo[4,5-c]pyridin-2-yl]pyridin-2-yl}morpholine] | < 50 nM |
| CN(C)c1ncc(-c2nc3ccncc3n2-c2ccc(Cl)cc2)cn1 [Example 72, 5-[3-(4-Chlorophenyl)-3H-imidazo[4,5-c]pyridin-2-yl]-N,N-dimethylpyrimidin-2-amine] | 200 to 1200 nM |
| Fc1ccc(-n2c(-c3ccnc(N4CCOCC4)c3)nc3ccncc32)cc1 [Example 73, 4-{4-[3-(4-Fluorophenyl)-3H-imidazo[4,5-c]pyridin-2-yl]pyridin-2-yl}morpholine] | 50 to 200 nM |
| Fc1cc(-n2c(-c3cnc(N4CCOCC4)nc3)nc3ccncc32)ccc1Cl [Example 74, 4-{5-[3-(4-Chloro-3-fluorophenyl)-3H-imidazo[4,5-c]pyridin-2-yl]pyrimidin-2-yl}morpholine] | 200 to 1200 nM |
| Fc1ccc(-n2c(-c3cnc(N4CCOCC4)nc3)nc3ccncc32)nc1 [Example 76, 4-{5-[3-(5-Fluoropyridin-2-yl)-3H-imidazo[4,5-c]pyridin-2-yl]pyrimidin-2-yl}morpholine] | 50 to 200 nM |
| Cc1ccc(-n2c(-c3cnc(N4CCOCC4)nc3)nc3ccncc32)nc1 [Example 79, 4-{5-[3-(5-Methylpyridin-2-yl)-3H-imidazo[4,5-c]pyridin-2-yl]pyrimidin-2-yl}morpholine] | < 50 nM |
| Fc1cc(Cl)ccc1-n1c(-c2cnc(N3CCCC3)nc2)nc2ccncc21 [Example 83, 5-[3-(4-Chloro-2-fluorophenyl)-3H-imidazo[4,5-c]pyridin-2-yl]-2-(pyrrolidin-1-yl)pyrimidine] | < 50 nM |
| CN(C)c1ncc(-c2nc3ccncc3n2-c2ccc(Cl)cc2F)cn1 [Example 84, 5-[3-(4-Chloro-2-fluorophenyl)-3H-imidazo[4,5-c]pyridin-2-yl]-N,N-dimethylpyrimidin-2-amine] | < 50 nM |
| CC(=O)N1CCCN(c2ccc(-c3nc4ccncc4n3-c3ccc(F)cc3)cn2)CC1 [Example 87, 1-(4-{5-[3-(4-Fluorophenyl)-3H-imidazo[4,5-c]pyridin-2-yl]pyridin-2-yl}-1,4-diazepan-1-yl)ethan-1-one; bis(trifluoroacetic acid)] | < 50 nM |
| NC(=O)N1CCN(c2ccc(-c3nc4ccncc4n3-c3ccc(Cl)cc3)cn2)CC1 [Example 90, 4-{5-[3-(4-Chlorophenyl)-3H-imidazo[4,5-c]pyridin-2-yl]pyridin-2-yl}piperazine-1-carboxamide dihydrochloride] | < 50 nM |
| NC(=O)N1CCN(c2ncc(-c3nc4ccncc4n3-c3ccc(Cl)cc3)o2)CC1 [Example 93, 4-{5-[3-(4-Chlorophenyl)-3H-imidazo[4,5-c]pyridin-2-yl]-1,3-oxazol-2-yl}piperazine-1-carboxamide] | 50 to 200 nM |
